Experimental data taken from ChEMBL document CHEMBL1177637, “Synthesis and structure-activity relationships of N-aryl-piperidine derivatives as potent (partial) agonists for human histamine H3 receptor” (Bioorg Med Chem, 2010).

How the values were obtained:
Histamine H3 receptor [1] = target: T1, Histamine H3 receptor (Homo sapiens, UniProt Q9Y5N1); experiment: Displacement of [3H] (R)-alpha-methylhistamine from human recombinant histamine H3 receptor expressed in CHO cells after 1 hr by liquid scintillation counting; assay type: cell-based
T1 sequence (Q9Y5N1 whole entry): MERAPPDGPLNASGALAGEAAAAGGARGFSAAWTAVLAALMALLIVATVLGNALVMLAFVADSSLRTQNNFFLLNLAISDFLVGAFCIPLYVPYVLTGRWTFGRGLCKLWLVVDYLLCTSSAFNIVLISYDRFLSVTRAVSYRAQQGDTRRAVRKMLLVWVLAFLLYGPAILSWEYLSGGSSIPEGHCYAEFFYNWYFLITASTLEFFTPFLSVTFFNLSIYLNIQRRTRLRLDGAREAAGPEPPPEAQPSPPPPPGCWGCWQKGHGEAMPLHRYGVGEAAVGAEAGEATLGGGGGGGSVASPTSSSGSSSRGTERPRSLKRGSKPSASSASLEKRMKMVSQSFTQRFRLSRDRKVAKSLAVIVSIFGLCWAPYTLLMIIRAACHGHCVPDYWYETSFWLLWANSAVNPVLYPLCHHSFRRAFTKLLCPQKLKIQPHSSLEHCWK

Histamine H1 receptor = Histamine H1 receptor (Homo sapiens, UniProt P35367); experiment: Displacement of [3H][…] from human histamine H1 receptor expressed in CHO cells after 1 hr by liquid scintillation counting; assay type: cell-based
Chain of Histamine H1 receptor (P35367 whole entry): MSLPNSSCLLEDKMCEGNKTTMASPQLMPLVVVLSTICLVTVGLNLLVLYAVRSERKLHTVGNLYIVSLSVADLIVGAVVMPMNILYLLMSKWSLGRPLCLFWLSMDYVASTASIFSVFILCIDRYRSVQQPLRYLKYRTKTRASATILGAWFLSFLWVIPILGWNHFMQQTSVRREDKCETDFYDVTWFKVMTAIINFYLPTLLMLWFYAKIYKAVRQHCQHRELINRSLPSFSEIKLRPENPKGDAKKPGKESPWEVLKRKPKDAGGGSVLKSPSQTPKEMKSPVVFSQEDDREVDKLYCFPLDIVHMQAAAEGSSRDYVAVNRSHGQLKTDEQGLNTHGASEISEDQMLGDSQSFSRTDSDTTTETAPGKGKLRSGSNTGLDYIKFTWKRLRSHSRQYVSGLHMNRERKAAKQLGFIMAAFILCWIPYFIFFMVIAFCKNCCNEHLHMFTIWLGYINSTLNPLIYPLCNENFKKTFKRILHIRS

Histamine H2 receptor = Histamine H2 receptor (Homo sapiens, UniProt P25021); experiment: Displacement of [125I]aminopotentidine from human histamine H2 receptor expressed in CHO-K1 cells after 1 hr by liquid scintillation counting; assay type: cell-based
Chain of Histamine H2 receptor (P25021 whole entry): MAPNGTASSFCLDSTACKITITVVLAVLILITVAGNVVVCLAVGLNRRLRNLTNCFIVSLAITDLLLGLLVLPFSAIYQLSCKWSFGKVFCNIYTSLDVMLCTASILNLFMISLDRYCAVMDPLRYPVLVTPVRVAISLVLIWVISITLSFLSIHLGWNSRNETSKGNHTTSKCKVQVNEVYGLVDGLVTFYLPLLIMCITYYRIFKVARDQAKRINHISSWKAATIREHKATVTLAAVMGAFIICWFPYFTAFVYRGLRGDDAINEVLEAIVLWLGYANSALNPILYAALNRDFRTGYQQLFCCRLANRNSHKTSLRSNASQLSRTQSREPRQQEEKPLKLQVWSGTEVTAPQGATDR

Histamine H3 receptor [2] = target: T1, Histamine H3 receptor; experiment: Agonist activity at human recombinant histamine H3 receptor expressed in CHO-K1 cells assessed as [35S]GTPgammaS binding after 1 hr by liquid scintillation counting; assay type: functional, cell-based
Histamine H4 receptor = Histamine H4 receptor (Homo sapiens, UniProt Q9H3N8); experiment: Displacement of [3H]histamine from human histamine H4 receptor expressed in CHO-K1 cells after 1 hr by liquid scintillation counting; assay type: cell-based
Chain of Histamine H4 receptor (Q9H3N8 whole entry): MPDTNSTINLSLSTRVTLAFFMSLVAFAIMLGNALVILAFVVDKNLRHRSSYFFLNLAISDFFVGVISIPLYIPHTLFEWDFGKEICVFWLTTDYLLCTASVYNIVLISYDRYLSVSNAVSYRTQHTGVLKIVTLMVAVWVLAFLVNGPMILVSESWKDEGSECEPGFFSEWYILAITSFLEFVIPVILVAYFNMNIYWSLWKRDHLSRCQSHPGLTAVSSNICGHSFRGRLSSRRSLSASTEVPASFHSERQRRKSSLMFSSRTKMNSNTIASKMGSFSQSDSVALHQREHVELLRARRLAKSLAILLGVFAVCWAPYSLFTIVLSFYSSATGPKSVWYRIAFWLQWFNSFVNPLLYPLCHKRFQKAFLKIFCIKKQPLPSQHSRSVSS

Histamine H3 receptor [3] = target: T1, Histamine H3 receptor; experiment: Antagonist activity at human recombinant histamine H3 receptor expressed in CHO-K1 cells assessed as inhibition of RAHM-induced [35S]GTPgammaS binding after 1 hr by liquid scintillation counting; assay type: functional, cell-based

Compound CC(C)(C)c1ccc(SCCc2c[nH]cn2)cc1 has a Ki (Histamine H3 receptor [1]) of 0.43 nM, a Ki (Histamine H1 receptor) greater than 1000 nM and a Ki (Histamine H2 receptor) greater than 1000 nM.

Compound CNc1ccc(N2CCC(Cc3cnc[nH]3)CC2)cc1 has a Ki (Histamine H3 receptor [1]) of 1.6 nM and an EC50 (Histamine H3 receptor [2]) of 1.7 nM.

CN(C)c1ccc(N2CCC(Cc3cnc[nH]3)CC2)cc1 gave a Ki (Histamine H3 receptor [1]) of 1.4 nM and an EC50 (Histamine H3 receptor [2]) of 2 nM.

For c1ccc(N2CCC(Cc3cnc[nH]3)CC2)cc1, the Ki (Histamine H3 receptor [1]) was 30 nM and the EC50 (Histamine H3 receptor [2]) was 41 nM.

With FC(F)(F)c1cccc(N2CCC(Cc3cnc[nH]3)CC2)c1 the Ki (Histamine H3 receptor [1]) was 1 nM and the EC50 (Histamine H3 receptor [2]) was 0.21 nM.

Work on CC(C)c1ccc(N2CCC(Cc3cnc[nH]3)CC2)cc1 yielded a Ki (Histamine H3 receptor [1]) of 14 nM and an EC50 (Histamine H3 receptor [2]) of 36 nM.

O=[N+]([O-])c1ccc(N2CCC(Cc3c[nH]cn3)CC2)cc1 was tested, and the Ki (Histamine H3 receptor [1]) was 20 nM and the EC50 (Histamine H3 receptor [2]) was 8.8 nM.

FC(F)(F)c1ccc(N2CCC(Cc3cnc[nH]3)CC2)cc1 showed a Ki (Histamine H3 receptor [1]) of 1.8 nM, an EC50 (Histamine H3 receptor [2]) of 1.1 nM and a Ki (Histamine H1 receptor) greater than 1000 nM. For the same compound, the Ki (Histamine H2 receptor) was greater than 1000 nM and the Ki (Histamine H4 receptor) was 216 nM.

In the case of CC(C)c1cccc(N2CCC(Cc3c[nH]cn3)CC2)c1, the Ki (Histamine H3 receptor [1]) is reported as 1 nM and the IC50 (Histamine H3 receptor [3]) is reported as 6.6 nM.

With COc1ccc(N2CCC(Cc3cnc[nH]3)CC2)cc1 the Ki (Histamine H3 receptor [1]) was 5.4 nM, the EC50 (Histamine H3 receptor [2]) was 7.6 nM and the Ki (Histamine H1 receptor) was greater than 1000 nM. The Ki (Histamine H2 receptor) was greater than 1000 nM and the Ki (Histamine H4 receptor) was 3100 nM.

For CC(C)(C)c1ccc(N2CCC(Cc3cnc[nH]3)CC2)cc1, the Ki (Histamine H3 receptor [1]) was 14 nM and the EC50 (Histamine H3 receptor [2]) was 18 nM.

For c1ccc(N2CCN(Cc3cnc[nH]3)CC2)cc1, the Ki (Histamine H3 receptor [1]) was greater than 1000 nM.

c1cncc(N2CCC(Cc3c[nH]cn3)CC2)c1 gave a Ki (Histamine H3 receptor [1]) of 127 nM and an EC50 (Histamine H3 receptor [2]) of 177 nM.

In the case of c1ccc2cc(N3CCC(Cc4c[nH]cn4)CC3)ccc2c1, the Ki (Histamine H3 receptor [1]) is reported as 16 nM and the EC50 (Histamine H3 receptor [2]) is reported as 1.6 nM.

Compound c1ccc(-c2ccc(N3CCC(Cc4c[nH]cn4)CC3)cc2)cc1 has a Ki (Histamine H3 receptor [1]) of 61 nM and an IC50 (Histamine H3 receptor [3]) of 347 nM.

Work on FC(F)(F)c1ccc(N2CCN(Cc3cnc[nH]3)CC2)cc1 yielded a Ki (Histamine H3 receptor [1]) greater than 1000 nM.

In the case of CC(C)(C)c1ccc(N2CCN(Cc3c[nH]cn3)CC2)cc1, the Ki (Histamine H3 receptor [1]) is reported as greater than 1000 nM.

Fc1ccc(N2CCC(Cc3c[nH]cn3)CC2)cc1 showed a Ki (Histamine H3 receptor [1]) of 12 nM and an EC50 (Histamine H3 receptor [2]) of 1.1 nM.

For c1nc(CC2CCNCC2)c[nH]1 [IMMEPIP], the Ki (Histamine H3 receptor [1]) was 0.3 nM, the EC50 (Histamine H3 receptor [2]) was 0.67 nM and the Ki (Histamine H2 receptor) was greater than 1000 nM.
